Source: ChEMBL document CHEMBL1909046, “DrugMatrix in vitro pharmacology data”

Assays:
[1] = target: Mitogen-activated protein kinase 1 (Homo sapiens, UniProt P28482); assay: DRUGMATRIX: Protein Serine/Threonine Kinase, ERK2 enzyme inhibition (substrate: Myelin Basic Protein); parameters: species or system Escherichia coli; conditions: Not Active = under 50% inhibition at 10 µM
[2] = target: T1, Muscarinic acetylcholine receptor M2 (Homo sapiens, UniProt P08172); format: cell membranes, CHO-K1, Membrane; conditions: cho-k1; further: in other assays of this panel Not Active means under 50% inhibition at 10 µM
T1 sequence (P08172 whole entry): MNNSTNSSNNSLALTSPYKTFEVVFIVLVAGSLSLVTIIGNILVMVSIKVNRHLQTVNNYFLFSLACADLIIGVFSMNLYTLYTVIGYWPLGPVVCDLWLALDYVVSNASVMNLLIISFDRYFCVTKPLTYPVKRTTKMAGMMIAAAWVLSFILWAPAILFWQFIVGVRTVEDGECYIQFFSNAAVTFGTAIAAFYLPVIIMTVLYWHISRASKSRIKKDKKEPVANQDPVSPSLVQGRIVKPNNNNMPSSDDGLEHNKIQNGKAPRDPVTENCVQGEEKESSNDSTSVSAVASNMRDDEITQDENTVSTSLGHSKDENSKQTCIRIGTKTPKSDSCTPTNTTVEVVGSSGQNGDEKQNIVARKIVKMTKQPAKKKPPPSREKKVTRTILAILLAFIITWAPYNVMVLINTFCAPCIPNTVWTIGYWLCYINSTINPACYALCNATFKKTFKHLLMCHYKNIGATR

[3] = DRUGMATRIX: Glutamate, AMPA radioligand binding (ligand: [3H] AMPA); format: cell membranes, Rattus norvegicus, Wistar, Cerebral cortex, Membrane; conditions: Not Active = under 50% inhibition at 10 µM
Endothelin-1 receptor = target: T2, Endothelin-1 receptor (Homo sapiens, UniProt P25101); format: cell membranes, Membrane; conditions: cho-k1; further: in other assays of this panel Not Active means under 50% inhibition at 10 µM
T2 sequence (P25101 whole entry): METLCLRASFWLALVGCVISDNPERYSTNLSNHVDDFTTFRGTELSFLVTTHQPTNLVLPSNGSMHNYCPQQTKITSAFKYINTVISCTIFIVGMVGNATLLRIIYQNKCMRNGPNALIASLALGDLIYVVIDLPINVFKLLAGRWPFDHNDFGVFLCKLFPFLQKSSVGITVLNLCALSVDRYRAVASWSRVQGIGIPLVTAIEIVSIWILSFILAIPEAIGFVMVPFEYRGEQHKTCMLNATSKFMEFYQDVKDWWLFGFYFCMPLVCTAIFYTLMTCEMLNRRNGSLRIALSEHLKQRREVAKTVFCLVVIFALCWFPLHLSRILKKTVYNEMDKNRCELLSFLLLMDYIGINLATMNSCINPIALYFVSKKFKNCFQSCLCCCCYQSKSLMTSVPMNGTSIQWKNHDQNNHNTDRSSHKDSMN

Estrogen receptor beta = Estrogen receptor beta (Homo sapiens, UniProt Q92731); conditions: sf9; further: in other assays of this panel Not Active means under 50% inhibition at 10 µM
Sequence of Estrogen receptor beta (Q92731 whole entry): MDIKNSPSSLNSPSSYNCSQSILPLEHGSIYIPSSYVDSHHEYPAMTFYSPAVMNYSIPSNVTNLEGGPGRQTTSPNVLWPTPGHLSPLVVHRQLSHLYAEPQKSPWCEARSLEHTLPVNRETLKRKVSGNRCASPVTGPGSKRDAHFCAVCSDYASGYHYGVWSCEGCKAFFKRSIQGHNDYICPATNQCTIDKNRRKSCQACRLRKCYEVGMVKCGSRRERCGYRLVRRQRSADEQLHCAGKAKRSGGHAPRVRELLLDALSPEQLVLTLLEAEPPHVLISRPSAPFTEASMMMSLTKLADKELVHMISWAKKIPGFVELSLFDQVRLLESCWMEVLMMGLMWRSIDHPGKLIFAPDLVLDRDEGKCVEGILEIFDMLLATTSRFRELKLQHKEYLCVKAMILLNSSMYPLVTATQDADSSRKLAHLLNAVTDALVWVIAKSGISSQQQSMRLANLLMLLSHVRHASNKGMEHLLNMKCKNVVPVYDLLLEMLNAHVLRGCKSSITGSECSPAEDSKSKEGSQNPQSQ

Cytochrome P450 2C9 = Cytochrome P450 2C9 (Homo sapiens, UniProt P11712); conditions: bti-tn-5b1-4; further: in other assays of this panel Not Active means under 50% inhibition at 10 µM
Sequence of Cytochrome P450 2C9 (P11712 whole entry): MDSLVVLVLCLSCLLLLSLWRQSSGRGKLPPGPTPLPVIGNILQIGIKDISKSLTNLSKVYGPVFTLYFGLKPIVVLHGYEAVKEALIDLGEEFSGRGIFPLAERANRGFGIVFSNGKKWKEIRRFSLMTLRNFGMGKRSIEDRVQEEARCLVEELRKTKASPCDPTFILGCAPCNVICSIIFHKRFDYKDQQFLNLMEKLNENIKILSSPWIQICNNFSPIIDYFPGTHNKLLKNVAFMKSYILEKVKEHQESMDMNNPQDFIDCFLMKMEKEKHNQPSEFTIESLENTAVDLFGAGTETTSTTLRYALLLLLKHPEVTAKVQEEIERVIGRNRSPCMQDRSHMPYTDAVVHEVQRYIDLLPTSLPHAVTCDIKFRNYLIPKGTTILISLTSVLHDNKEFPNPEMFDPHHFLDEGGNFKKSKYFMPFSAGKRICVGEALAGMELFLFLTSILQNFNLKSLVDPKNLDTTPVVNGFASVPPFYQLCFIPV

Insulin receptor = Insulin receptor (Rattus norvegicus, UniProt P15127); format: cell membranes, Wistar, Liver, Membrane; further: in other assays of this panel Not Active means under 50% inhibition at 10 µM
Sequence of Insulin receptor (P15127 27-759 limits assumed): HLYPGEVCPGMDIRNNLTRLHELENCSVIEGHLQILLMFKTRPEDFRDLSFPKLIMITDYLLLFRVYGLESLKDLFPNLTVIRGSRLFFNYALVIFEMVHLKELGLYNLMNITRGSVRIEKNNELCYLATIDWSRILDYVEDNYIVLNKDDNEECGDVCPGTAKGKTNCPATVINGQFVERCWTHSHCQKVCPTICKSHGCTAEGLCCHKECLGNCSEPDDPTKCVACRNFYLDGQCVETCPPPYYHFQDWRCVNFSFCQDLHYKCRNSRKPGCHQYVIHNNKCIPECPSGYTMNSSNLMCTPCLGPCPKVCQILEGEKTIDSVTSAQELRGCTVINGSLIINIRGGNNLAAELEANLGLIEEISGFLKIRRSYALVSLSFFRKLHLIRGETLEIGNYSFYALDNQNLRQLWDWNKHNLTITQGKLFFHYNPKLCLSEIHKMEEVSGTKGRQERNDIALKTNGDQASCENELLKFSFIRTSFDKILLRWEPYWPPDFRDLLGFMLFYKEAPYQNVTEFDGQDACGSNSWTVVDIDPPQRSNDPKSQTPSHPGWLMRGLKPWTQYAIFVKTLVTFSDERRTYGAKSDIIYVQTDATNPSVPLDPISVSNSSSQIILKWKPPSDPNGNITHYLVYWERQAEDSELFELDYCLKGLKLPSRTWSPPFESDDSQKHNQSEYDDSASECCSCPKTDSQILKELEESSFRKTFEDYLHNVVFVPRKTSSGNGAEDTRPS
Sequence of Insulin receptor (P15127 764-1383 limits assumed): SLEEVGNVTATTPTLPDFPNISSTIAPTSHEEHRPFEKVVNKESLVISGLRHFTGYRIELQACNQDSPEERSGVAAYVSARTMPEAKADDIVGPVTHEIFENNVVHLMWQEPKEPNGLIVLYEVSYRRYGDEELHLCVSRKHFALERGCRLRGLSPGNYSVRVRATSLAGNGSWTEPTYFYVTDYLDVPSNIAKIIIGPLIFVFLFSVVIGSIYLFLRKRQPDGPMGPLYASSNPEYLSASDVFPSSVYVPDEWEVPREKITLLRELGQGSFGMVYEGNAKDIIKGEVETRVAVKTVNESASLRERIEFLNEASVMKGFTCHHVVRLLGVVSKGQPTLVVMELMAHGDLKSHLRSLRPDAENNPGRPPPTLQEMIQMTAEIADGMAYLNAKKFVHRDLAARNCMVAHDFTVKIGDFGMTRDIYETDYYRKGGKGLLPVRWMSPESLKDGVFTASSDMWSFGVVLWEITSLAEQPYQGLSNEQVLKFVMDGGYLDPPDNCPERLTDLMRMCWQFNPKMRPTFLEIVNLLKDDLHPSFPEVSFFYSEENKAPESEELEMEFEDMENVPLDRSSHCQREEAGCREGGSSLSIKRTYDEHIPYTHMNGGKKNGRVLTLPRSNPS

[4] = DRUGMATRIX: Glutamate, NMDA, Agonism radioligand binding (ligand: [3H] CGP-39653); format: cell membranes, Rattus norvegicus, Wistar, Cerebral cortex, Membrane; conditions: Not Active = under 50% inhibition at 10 µM
[5] = DRUGMATRIX: beta-Lactamase enzyme inhibition (substrate: Nitrocefin); parameters: species or system Bacillus cereus; conditions: Not Active = under 50% inhibition at 10 µM
[6] = DRUGMATRIX: Leukotriene, BLT (LTB4) radioligand binding (ligand: [3H]LTB4); format: cell membranes, Membrane; conditions: u-937; Not Active = under 50% inhibition at 10 µM
[7] = DRUGMATRIX: Interleukin IL-1 radioligand binding (ligand: [125I] interleukin 1beta); format: cell membranes, Membrane; conditions: nih3t3; Not Active = under 50% inhibition at 10 µM
Caspase-1 = target: T3, Caspase-1 (Homo sapiens, UniProt P29466); parameters: species or system Escherichia coli
T3 sequence (P29466 whole entry): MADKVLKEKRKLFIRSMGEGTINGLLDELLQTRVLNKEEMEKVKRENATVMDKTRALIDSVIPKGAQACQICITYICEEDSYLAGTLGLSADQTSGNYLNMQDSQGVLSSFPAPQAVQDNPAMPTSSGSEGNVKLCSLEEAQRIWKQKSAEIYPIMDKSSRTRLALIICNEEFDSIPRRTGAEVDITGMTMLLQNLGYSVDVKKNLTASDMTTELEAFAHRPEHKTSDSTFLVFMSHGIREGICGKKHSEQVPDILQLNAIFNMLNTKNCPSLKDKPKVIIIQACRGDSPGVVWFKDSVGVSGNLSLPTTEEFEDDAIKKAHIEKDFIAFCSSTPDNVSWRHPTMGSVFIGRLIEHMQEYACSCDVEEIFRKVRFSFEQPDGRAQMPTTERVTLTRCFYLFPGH

Sequence of Mitogen-activated protein kinase 1 (P28482 whole entry): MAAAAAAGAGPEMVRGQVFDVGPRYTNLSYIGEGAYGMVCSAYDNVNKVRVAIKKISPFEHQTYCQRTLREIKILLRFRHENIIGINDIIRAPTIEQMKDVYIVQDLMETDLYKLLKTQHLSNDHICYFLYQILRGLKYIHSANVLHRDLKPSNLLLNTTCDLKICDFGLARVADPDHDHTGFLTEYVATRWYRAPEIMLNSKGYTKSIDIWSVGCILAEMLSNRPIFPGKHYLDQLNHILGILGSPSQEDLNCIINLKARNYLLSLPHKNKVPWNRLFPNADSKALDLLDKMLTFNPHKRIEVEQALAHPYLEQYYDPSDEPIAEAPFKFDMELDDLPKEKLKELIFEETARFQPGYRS

CC[C@]1(O)C[C@@H]2CN(CCc3c([nH]c4ccccc34)[C@@](C(=O)OC)(c3cc4c(cc3OC)N(C)[C@H]3[C@@](O)(C(=O)OC)[C@H](OC(C)=O)[C@]5(CC)C=CCN6CC[C@]43[C@@H]65)C2)C1 [VINBLASTINE]
Not Active: IC50 [1] | IC50 [2] | IC50 [3] | Ki [3] | IC50 (Endothelin-1 receptor) | IC50 (Estrogen receptor beta) | IC50 (Cytochrome P450 2C9) | Ki (Cytochrome P450 2C9) | IC50 (Insulin receptor) | IC50 [4] | Ki [4] | IC50 [5] | Ki [5] | IC50 [6] | Ki [6] | IC50 [7] | Ki [7] | IC50 (Caspase-1)

C[C@@H](N)[C@H]1CC[C@H](C(=O)Nc2ccncc2)CC1 [Y-27632]
Not Active: IC50 [1] | IC50 [2] | IC50 [3] | Ki [3] | IC50 (Endothelin-1 receptor) | IC50 (Estrogen receptor beta) | IC50 (Cytochrome P450 2C9) | Ki (Cytochrome P450 2C9) | IC50 (Insulin receptor) | IC50 [4] | Ki [4] | IC50 [5] | Ki [5] | IC50 [6] | Ki [6] | IC50 [7] | Ki [7] | IC50 (Caspase-1)
